Where two headings read alike, the source gives them in different places.
Assays:
[1] = system: fungal species; assay: 30-III fungal test on 1"X1" chip of dried latex, 7 days; assay type: cell-based; conditions: 7 day incubation, FIG. 5
From the text: FIG. 5 is a graph showing the results of a 30-III fungal test, based on making a 1″X1″ chip of the dried latex, inoculating the fungal species directly on to the sample, and then observing its growth after 7 days.
The 30-III fungal test was based on making a 1″X1″ chip of the dried latex and inoculating the fungal species directly on to the sample and then observing its growth after 7 days.

[2] = Stability of additive under polymerization conditions; assay type: physicochemical; conditions: incorporated in relatively high amounts
From the text: Ideally, the materials are substantially unreactive during the polymerization conditions, so they are not degraded during polymerization. In some embodiments, low levels of additive might be observed, whether due to degradation, or difficulty in extraction from the polymer latex. In any case, retention of the additive in the latex leads to retention of antifungal properties in the finished paper.
The polymerization temperature was investigated as a potential contributor to degradation, and it was kept as low as was feasible (typically <70° C.). The samples were stripped at the end of polymerization to the desired solids content.

[3] = Solubility of additives used in polymerization; assay type: physicochemical
[4] = system: fungal species; assay: ASTM D-3273 second round test of coated paper, 28 days, spores in humidity chamber; assay type: cell-based; conditions: increased coating thickness, FIG. 6
Experimental: FIG. 6 is a graph showing the results of a second round of testing of coated paper samples, tested according to ASTM D-3273 over a period of 28 days. In this study, the fungal species were not directly inoculated on the surface, but rather, were maintained in the humidity chamber as spores that would then land on the surface of the coated paper.
A second round of testing was performed using an increased coating thickness to ensure full coverage of the paper surface. The second round of testing of the coated paper samples were tested according to ASTM D-3273. In this study, the duration remained the same (28 days), but the fungal species were not directly inoculated on the surface. Rather, they were maintained in the humidity chamber as spores that would then land on the surface of the coated paper as in a real world example. The results of this study are outlined in FIG. 6.

[5] = additives used in polymerization, solubility in monomer or water

| Compound | Fungal inhibition, 30-III test [1] | Solubility [3, 5] | Antifungal effectiveness, ASTM D-3273 [4] | further results |
| --- | --- | --- | --- | --- |
| Cc1ccc(S(=O)(=O)C(I)I)cc1 [Amical AF, Diiodomethyltoluyl sulfone] | some fungal inhibition | Limited | effective | Degradation during polymerization [2]: degraded |
| [Na+].[O-]c1ccccc1-c1ccccc1 [Microban P2, Sodium orthophenyl phenate] | – | Solid. Water | – | – |
| CCCC1COC(Cn2cncn2)(c2ccc(Cl)cc2Cl)O1 (stereo not shown) [Microban PZ, Propiconazole] | – | – | – | Solubility [3]: Fairly soluble |
| CC(C)(C)C(O)(CCc1ccc(Cl)cc1)Cn1cncn1 (stereo not shown) [Microban TZ, Tebuconazole] | – | Fairly soluble | – | – |
| Oc1cc(Cl)ccc1Oc1ccc(Cl)cc1Cl [Triclosan, Chlorodiphenyl ether] | – | Solid. Fairly | – | – |
| Zinc pyrithione [Microban Z01] | performed well | – | did not perform well | – |

Reference: patent publication US20080182125A1, “Cationic latex as a carrier for bioactive ingredients and its use in wallboard manufacture” (priority 2006, published 2008)
